From patent US20240124417A1, “COMPOUNDS USEFUL AS IMMUNOMODULATORS” (Bristol-Myers Squibb Company, priority 2019, published 2024)

Molecular target: T1, PD-1/PD-L1 (Homo sapiens, UniProt Q9NZQ7)
T1 construct: TVMV protease site linker (C); made in house; host or cells: HEK293T cells
Experiment: PD-1/PD-L1 Homogenous Time-Resolved Fluorescence (HTRF) binding assay
Conditions: PD-L1-His 10 nM, PD-1-Ig 20 nM
How it was run: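 Inhibitors pre-incubated 15 min with PD-L1-His extracellular domain (10 nM final) in dPBS with 0.1% BSA and 0.05% Tween-20, then PD-1-Ig (20 nM final) added for a further 15 min. Read-out by HTRF with europium cryptate anti-Ig (1 nM) and APC anti-His (20 nM). Related pairs: PD-1-Ig/PD-L2-His (20/5 nM), CD80-His/PD-L1-Ig (100/10 nM).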

T1 sequence (Q9NZQ7 18-239): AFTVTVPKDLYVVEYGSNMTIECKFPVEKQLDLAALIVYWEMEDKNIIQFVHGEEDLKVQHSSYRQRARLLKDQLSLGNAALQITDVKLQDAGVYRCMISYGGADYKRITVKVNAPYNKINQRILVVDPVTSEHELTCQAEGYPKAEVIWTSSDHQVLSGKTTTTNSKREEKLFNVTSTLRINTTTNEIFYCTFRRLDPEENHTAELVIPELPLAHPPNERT

IC50 [nM] | SMILES
5.5 | Cc1c(COc2cc(OCc3cncc(C#N)c3)c(CN3CCc4cn[nH]c4C3)cc2Cl)cccc1-c1cccc(OCCCN2CC[C@@H](O)C2)c1C [Example 2569, (R)-5-((4-chloro-5-((3′-(3-(3-hydroxypyrrolidin-1-yl)propoxy)-2,2′-dimethyl-[1,1′-biphenyl]-3-yl)methoxy)-2-((1,4,5,7-tetrahydro-6H-pyrazolo[3,4-c]pyridin-6-yl)methyl)phenoxy)methyl)nicotinonitrile]
1.6 | Cc1c(COc2cc(OCc3cncc(C#N)c3)c(CNCc3ncc[nH]3)cc2Cl)cccc1-c1cccc(OCC2CCCN(C)C2)c1Cl (stereo not drawn) [Example 2577, 5-((2-((((1H-imidazol-2-yl)methyl)amino)methyl)-4-chloro-5-((2′-chloro-2-methyl-3′-((1-methylpiperidin-3-yl)methoxy)-[1,1′-biphenyl]-3-yl)methoxy)phenoxy)methyl)nicotinonitrile]
2 | Cc1c(COc2cc(OCc3cncnc3)c(CNCc3cn[nH]c3)cc2Cl)cccc1-c1cccc(OCCCN2CC[C@@H](O)C2)c1C [Example 2051, (R)-1-(3-((3′-((4-((((1H-pyrazol-4-yl)methyl)amino)methyl)-2-chloro-5-(pyrimidin-5-ylmethoxy)phenoxy)methyl)-2,2′-dimethyl-[1,1′-biphenyl]-3-yl)oxy)propyl)pyrrolidin-3-ol]
178 | Cc1onc(-c2ccccc2)c1CN(C)Cc1cc(Cl)c(OCc2cccc(-c3cccc(OCCCN4CC[C@@H](O)C4)c3C)c2C)cc1OCc1cncc(C#N)c1 [Example 2523, (R)-5-((4-chloro-5-((3′-(3-(3-hydroxypyrrolidin-1-yl)propoxy)-2,2′-dimethyl-[1,1′-biphenyl]-3-yl)methoxy)-2-((methyl((5-methyl-3-phenylisoxazol-4-yl)methyl)amino)methyl)phenoxy)methyl)nicotinonitrile]
8.8 | Cc1c(COc2cc(OCc3cncc(C#N)c3)c(CN(C)Cc3nc4ccccc4[nH]3)cc2Cl)cccc1-c1cccc(OCCCN2CC[C@@H](O)C2)c1C [Example 2023, (R)-5-((2-((((1H-benzo[d]imidazol-2-yl)methyl)(methyl)amino)methyl)-4-chloro-5-((3′-(3-(3-hydroxypyrrolidin-1-yl)propoxy)-2,2′-dimethyl-[1,1′-biphenyl]-3-yl)methoxy)phenoxy)methyl)nicotinonitrile]
0.2 | Cc1c(COc2cc(OCc3cncc(C#N)c3)c(CN3CCCC(c4cnn(C)c4)C3)cc2Cl)cccc1-c1cccc(OCC2CCCN(C)C2)c1Cl (stereo not drawn) [Example 1023, 5-((4-Chloro-5-((2′-chloro-2-methyl-3′-((1-methylpiperidin-3-yl)methoxy)-[1,1′-biphenyl]-3-yl)methoxy)-2-((3-(1-methyl-1H-pyrazol-4-yl)piperidin-1-yl)methyl)-phenoxy)methyl)nicotinonitrile]
0.9 | Cc1c(COc2cc(OCc3cncc(C#N)c3)c(CN3CCc4[nH]ncc4C3)cc2Cl)cccc1-c1cccc(OCC2CCCN(C)C2)c1Cl (stereo not drawn) [Example 2587, 5-((4-chloro-5-((2′-chloro-2-methyl-3′-((1-methylpiperidin-3-yl)methoxy)-[1,1′-biphenyl]-3-yl)methoxy)-2-((1,4,6,7-tetrahydro-5H-pyrazolo[4,3-c]pyridin-5-yl)methyl)phenoxy)methyl)nicotinonitrile]
0.5 | Cc1c(COc2cc(OCc3cncc(C#N)c3)c(CN3CCCC3c3cn[nH]c3)cc2Cl)cccc1-c1cccc(OCC2CCCN(C)C2)c1Cl (stereo not drawn) [Example 1025, 5-((2-((2-(1H-Pyrazol-4-yl)pyrrolidin-1-yl)methyl)-4-chloro-5-((2′-chloro-2-methyl-3′-((1-methylpiperidin-3-yl)methoxy)-[1,1′-biphenyl]-3-yl)methoxy)phenoxy)methyl)-nicotinonitrile]
2.8 | Cc1c(COc2cc(OCc3cncc(C#N)c3)c(CNCc3ncc[nH]3)cc2Cl)cccc1-c1cccc(OCCCN2CCC(O)(CO)CC2)c1Cl [Example 2011, 5-((2-((((1H-imidazol-2-yl)methyl)amino)methyl)-4-chloro-5-((2′-chloro-3′-(3-(4-hydroxy-4-(hydroxymethyl)piperidin-1-yl)propoxy)-2-methyl-[1,1′-biphenyl]-3-yl)methoxy)phenoxy)methyl)nicotinonitrile]
7.4 | Cc1c(COc2cc(OCc3cncc(C#N)c3)c(CNCc3cc(C)n(C)n3)cc2Cl)cccc1-c1cccc(OCCCN2CC[C@@H](O)C2)c1C [Example 2536, (R)-5-((4-chloro-2-((((1,5-dimethyl-1H-pyrazol-3-yl)methyl)amino)methyl)-5-((3′-(3-(3-hydroxypyrrolidin-1-yl)propoxy)-2,2′-dimethyl-[1,1′-biphenyl]-3-yl)methoxy)phenoxy)methyl)nicotinonitrile]
4.9 | Cc1c(COc2cc(OCc3cncc(C#N)c3)c(CNc3nnn[nH]3)cc2Cl)cccc1-c1cccc(OCCCN2CC[C@@H](O)C2)c1C [Example 1001, (R)-5-((2-(((1H-Tetrazol-5-yl)amino)methyl)-4-chloro-5-((3′-(3-(3-hydroxypyrrolidin-1-yl)propoxy)-2,2′-dimethyl-[1,1′-biphenyl]-3-yl)methoxy)phenoxy)methyl)nicotinonitrile]
32.3 | Cc1c(COc2cc(OCc3cncc(C#N)c3)c(CNCc3cncs3)cc2Cl)cccc1-c1cccc(OC2CCN(C)CC2)c1Cl [Example 2046, 5-((4-chloro-5-((2′-chloro-2-methyl-3′-((1-methylpiperidin-4-yl)oxy)-[1,1′-biphenyl]-3-yl)methoxy)-2-(((thiazol-5-ylmethyl)amino)methyl)phenoxy)methyl)nicotinonitrile]
0.7 | Cc1c(COc2cc(OCc3cncc(C#N)c3)c(CN3CCCCC3c3nnn[nH]3)cc2Cl)cccc1-c1cccc(OCCCN2CC[C@@H](O)C2)c1C (stereo partly drawn) [Example 1012, 5-((2-((2-(1H-Tetrazol-5-yl)piperidin-1-yl)methyl)-4-chloro-5-((3′-(3-((R)-3-hydroxy-pyrrolidin-1-yl)propoxy)-2,2′-dimethyl-[1,1′-biphenyl]-3-yl)methoxy)phenoxy)methyl)-nicotinonitrile]
2 | Cc1c(COc2cc(OCc3cncc(C#N)c3)c(CNCc3ncco3)cc2Cl)cccc1-c1cccc(OCC2CCCN(C)C2)c1Cl (stereo not drawn) [Example 2590, 5-((4-chloro-5-((2′-chloro-2-methyl-3′-((1-methylpiperidin-3-yl)methoxy)-[1,1′-biphenyl]-3-yl)methoxy)-2-(((oxazol-2-ylmethyl)amino)methyl)phenoxy)methyl)nicotinonitrile]
23.2 | Cc1onc(-c2ccccc2)c1CNCc1cc(Cl)c(OCc2cccc(-c3cccc(OCCCN4CC[C@@H](O)C4)c3C)c2C)cc1OCc1cncc(C#N)c1 [Example 2522, (R)-5-((4-chloro-5-((3′-(3-(3-hydroxypyrrolidin-1-yl)propoxy)-2,2′-dimethyl-[1,1′-biphenyl]-3-yl)methoxy)-2-((((5-methyl-3-phenylisoxazol-4-yl)methyl)amino)methyl)phenoxy)methyl)nicotinonitrile]
3 | Cc1noc(C)c1CNCc1cc(Cl)c(OCc2cccc(-c3cccc(OCCCN4CC[C@@H](O)C4)c3C)c2C)cc1OCc1cncc(C#N)c1 [Example 2526, (R)-5-((4-chloro-2-((((3,5-dimethylisoxazol-4-yl)methyl)amino)methyl)-5-((3′-(3-(3-hydroxypyrrolidin-1-yl)propoxy)-2,2′-dimethyl-[1,1′-biphenyl]-3-yl)methoxy)phenoxy)methyl)nicotinonitrile]
7.6 | Cc1c(COc2cc(OCc3cncc(C#N)c3)c(CNCc3c[nH]cn3)cc2Cl)cccc1-c1cccc(OCc2cncnc2)c1Cl [Example 2062, 5-((2-((((1H-imidazol-4-yl)methyl)amino)methyl)-4-chloro-5-((2′-chloro-2-methyl-3′-(pyrimidin-5-ylmethoxy)-[1,1′-biphenyl]-3-yl)methoxy)phenoxy)methyl)nicotinonitrile]
0.9 | Cc1nc(CNCc2cc(Cl)c(OCc3cccc(-c4cccc(OCC5CCCN(C)C5)c4Cl)c3C)cc2OCc2cncc(C#N)c2)no1 (stereo not drawn) [Example 2603, 5-((4-chloro-5-((2′-chloro-2-methyl-3′-((1-methylpiperidin-3-yl)methoxy)-[1,1′-biphenyl]-3-yl)methoxy)-2-((((5-methyl-1,2,4-oxadiazol-3-yl)methyl)amino)methyl)phenoxy)methyl)nicotinonitrile]
1.9 | Cc1c(COc2cc(OCc3cncc(C#N)c3)c(CNCc3ncn[nH]3)cc2Cl)cccc1-c1cccc(OCC2CCCN(C)C2)c1Cl (stereo not drawn) [Example 2578, 5-((2-((((1H-1,2,4-triazol-5-yl)methyl)amino)methyl)-4-chloro-5-((2′-chloro-2-methyl-3′-((1-methylpiperidin-3-yl)methoxy)-[1,1′-biphenyl]-3-yl)methoxy)phenoxy)methyl)nicotinonitrile]
4.4 | Cc1c(COc2cc(OCc3cncc(C#N)c3)c(CN(C)CCc3cc[nH]n3)cc2Cl)cccc1-c1cccc(OCCCN2CC[C@@H](O)C2)c1C [Example 2518, (R)-5-((2-(((2-(1H-pyrazol-3-yl)ethyl)(methyl)amino)methyl)-4-chloro-5-((3′-(3-(3-hydroxypyrrolidin-1-yl)propoxy)-2,2′-dimethyl-[1,1′-biphenyl]-3-yl)methoxy)phenoxy)methyl)nicotinonitrile]
4.1 | Cc1c(COc2cc(OCc3cncc(C#N)c3)c(CNCc3ncc[nH]3)cc2Cl)cccc1-c1cccc(OCCCN2CC[C@@H](O)C2)c1C [Example 2004, (R)-5-((2-((((1H-imidazol-2-yl)methyl)amino)methyl)-4-chloro-5-((3′-(3-(3-hydroxypyrrolidin-1-yl)propoxy)-2,2′-dimethyl-[1,1′-biphenyl]-3-yl)methoxy)phenoxy)methyl)nicotinonitrile]
